Usually IC50 stands for the concentration needed to halve the response being measured. A lower IC50 goes with inhibition by little substance. By EC50 is commonly meant the concentration needed to bring the measured effect to its halfway point. A high value points to a less potent agent.

A value given as a limit tells only on which side of the number the result lay.

For one test, the target named is Cbl-b (Homo sapiens (Human), UniProt Q13191). Briefly: Cbl-b probe displacement HTRF binding assay. The conditions noted are these: 0.4 nM biotinylated Cbl-b, 150 nM BODIPY probe. In outline:
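Biotinylated Cbl-b (0.4 nM final) was preincubated 60 min at room temperature with compound (20-point 1:2 series, top 10 μM final), then BODIPY probe (150 nM final) was added for 15 min before streptavidin-terbium cryptate. Buffer was 20 mM Hepes, 150 mM NaCl, 0.01% Triton X-100, 0.5 mM TCEP, 0.01% BSA; IC50 was derived from a four-parameter fit of HTRF signal loss.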
A general note: Time-resolved FRET reads energy transfer from a long-lived donor to a nearby acceptor.

The next test has as its system Jurkat cells. Briefly: IL-2 secretion assay in CD3/CD28-activated Jurkat cells (AlphaLISA). Format: cell-based, human. The conditions noted are these: Homo sapiens, CD3/CD28 activation, 24 h. In outline:
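Jurkat cells in Opti-MEM (50,000/well) preincubated 1 h at 37° C with compound (16-point 1:2 dilution, final 10 μM to […]), then activated with CD3/CD28 T cell activator for 24 h at 37° C. Secreted IL-2 in supernatant quantified by AlphaLISA; EC50 from 4-parameter logistic fit.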

Cbl-b, sequence (Q13191 whole entry, species assumed): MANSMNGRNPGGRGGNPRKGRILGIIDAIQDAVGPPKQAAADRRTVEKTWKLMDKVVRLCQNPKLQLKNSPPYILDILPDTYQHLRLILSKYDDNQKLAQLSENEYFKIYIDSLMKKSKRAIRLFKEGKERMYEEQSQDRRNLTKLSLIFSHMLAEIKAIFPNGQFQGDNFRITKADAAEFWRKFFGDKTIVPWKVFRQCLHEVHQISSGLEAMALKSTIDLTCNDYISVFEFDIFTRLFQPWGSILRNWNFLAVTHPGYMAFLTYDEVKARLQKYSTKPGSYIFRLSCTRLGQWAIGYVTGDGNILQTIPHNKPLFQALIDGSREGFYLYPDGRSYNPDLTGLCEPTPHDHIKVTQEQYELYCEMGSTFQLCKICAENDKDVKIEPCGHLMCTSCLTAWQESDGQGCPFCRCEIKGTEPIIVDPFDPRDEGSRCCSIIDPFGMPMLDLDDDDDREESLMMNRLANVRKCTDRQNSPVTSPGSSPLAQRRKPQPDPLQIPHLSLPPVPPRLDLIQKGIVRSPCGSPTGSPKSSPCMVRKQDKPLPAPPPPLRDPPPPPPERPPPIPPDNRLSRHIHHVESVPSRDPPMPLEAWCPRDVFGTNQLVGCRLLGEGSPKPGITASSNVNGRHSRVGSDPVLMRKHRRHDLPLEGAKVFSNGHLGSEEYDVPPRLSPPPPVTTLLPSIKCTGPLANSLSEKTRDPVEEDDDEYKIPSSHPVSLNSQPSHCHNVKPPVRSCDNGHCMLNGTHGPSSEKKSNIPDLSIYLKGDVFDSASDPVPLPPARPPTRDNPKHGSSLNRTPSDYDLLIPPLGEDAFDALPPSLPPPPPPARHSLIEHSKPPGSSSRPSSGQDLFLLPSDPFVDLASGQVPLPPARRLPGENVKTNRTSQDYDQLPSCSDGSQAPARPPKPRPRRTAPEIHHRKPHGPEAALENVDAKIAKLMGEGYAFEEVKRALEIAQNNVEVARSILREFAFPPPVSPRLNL

`C[C@H]1CCCN(Cc2cc3c(C#N)cn(-c4cc(-c5cccnc5C(=O)N(C)C)cc(C5CC5)n4)c(=O)c3[nH]2)C1` [Example 20, N,N-dimethyl-2′-(2-{[(S)-3-methyl-1-piperidyl]methyl}-4-cyano-7-oxo-1,6-dihydro-1,6-diaza-6-indenyl)-6′-cyclopropyl-[3,4′-bipyridyl]-2-carboxamide] returned an IC50 on Cbl-b of 100 to 1000 nM. This compound also registered an EC50 with Jurkat cells of 1000 to 5000 nM.
In the same order, the values of `O=C(c1cc(F)ccc1-c1cc(C2CC2)nc(-n2cnc3cc(C4CCNC4)[nH]c3c2=O)c1)N1CC(F)C1` (stereo not drawn) [Example 32, 3-[6-cyclopropyl-4-[4-fluoro-2-(3-fluoroazetidine-1-carbonyl)phenyl]pyridin-2-yl]-6-pyrrolidin-3-yl-5H-pyrrolo[3,2-d]pyrimidin-4-one] are under 100 nM and 1000 to 5000 nM.
With `C[C@H]1CCCN(Cc2cc3c(C4CC4)cn(-c4nc(-c5ccc(F)cc5C(=O)N5CC(F)C5)cc(C5CC5)n4)c(=O)c3[nH]2)C1` [Example 31, 4-cyclopropyl-6-[4-cyclopropyl-6-[4-fluoro-2-(3-fluoroazetidine-1-carbonyl)phenyl]pyrimidin-2-yl]-2-[[(3S)-3-methylpiperidin-1-yl]methyl]—1H-pyrrolo[2,3-c]pyridin-7-one], the half-inhibitory concentration (IC50) at Cbl-b was 1000 to 5000 nM. For the same compound, in the test with Jurkat cells, the EC50 is over 5000 nM.
`C[C@H]1CCCN(Cc2cc3c(C4CC4)cn(-c4cc(-c5ccc(F)cc5C(=O)N5CCOCC5)cc(C5CC5)n4)c(=O)c3[nH]2)C1` [Example 3, 2-{[(S)-3-methyl-1-piperidyl]methyl}-4-cyclopropyl-6-[6-cyclopropyl-4-(4-fluoro-2-morpholinocarbonylphenyl)-2-pyridyl]-1,6-dihydro-1,6-diaza-7-indenone] displayed an IC50 at Cbl-b of under 100 nM. In addition, the concentration for a half-maximal effect (EC50) with Jurkat cells was 100 to 1000 nM.
With `C[C@@H]1CN(Cc2cc3ncn(-c4cc(-c5ccc(F)cc5C(=O)N5CC(F)C5)cc(C5CC5)n4)c(=O)c3[nH]2)CCO1` [Example 26, 3-[6-cyclopropyl-4-[4-fluoro-2-(3-fluoroazetidine-1-carbonyl)phenyl]pyridin-2-yl]-6-[[(2R)-2-methylmorpholin-4-yl]methyl]-5H-pyrrolo[3,2-d]pyrimidin-4-one], the 50% inhibitory concentration (IC50) on Cbl-b is under 100 nM. This compound registered an EC50 in the test on Jurkat cells of under 100 nM.
Take `O=C(c1cc(F)ccc1-c1cc(C2CC2)nc(-n2cc(C(F)(F)F)c3cc(CO)[nH]c3c2=O)c1)C1CC(F)C1` (stereo not drawn) [Example 52, 6-[6-cyclopropyl-4-[4-fluoro-2-(3-fluorocyclobutanecarbonyl)phenyl]pyridin-2-yl]-2-(hydroxymethyl)-4-(trifluoromethyl)-1H-pyrrolo[2,3-c]pyridin-7-one]: on Cbl-b, the 50% inhibitory concentration (IC50) was under 100 nM. In addition, the EC50 with Jurkat cells lay within 100 to 1000 nM.

For the origin of these results see patent publication US20240425497A1, “Cbl-b Inhibitors and Methods of Use Thereof” (ARCUS BIOSCIENCES, INC., priority 2023, published 2024).
